Assay results published in ChEMBL document CHEMBL1136191, “Cyclin-dependent kinase 4 inhibitors as a treatment for cancer. Part 1: identification and optimisation of substituted 4,6-bis anilino pyrimidines” (Bioorg Med Chem Lett, 2003).

Columns and labels:
[1] = target: Cyclin-dependent kinase 2 (Homo sapiens, UniProt P24941); test: In vitro inhibition of Cyclin-dependent kinase 2 was determined.
[2] = target: Cyclin-dependent kinase 4 (Homo sapiens, UniProt P11802); test: In vitro inhibition of Cyclin-dependent kinase 4 was determined.
Cyclin-dependent kinase 4, sequence (P11802 whole entry): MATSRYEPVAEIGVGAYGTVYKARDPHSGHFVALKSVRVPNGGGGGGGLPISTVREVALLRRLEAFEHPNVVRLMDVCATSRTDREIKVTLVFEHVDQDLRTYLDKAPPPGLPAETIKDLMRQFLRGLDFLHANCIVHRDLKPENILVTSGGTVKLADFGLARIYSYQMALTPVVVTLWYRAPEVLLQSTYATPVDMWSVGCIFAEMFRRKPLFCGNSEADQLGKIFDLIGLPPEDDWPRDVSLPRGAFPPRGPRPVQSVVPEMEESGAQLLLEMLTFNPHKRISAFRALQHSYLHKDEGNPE

Row | IC50 [1] | IC50 [2] | SMILES
1 | 39 µM | 8 µM | Cc1ccccc1Nc1cc(Nc2ccc(OCC(O)CN(C)C)cc2)ncn1 (configuration not stated)
2 | 95 µM | 8 µM | CN(C)CC(O)COc1ccc(Nc2cc(Nc3ccccc3Cl)ncn2)cc1 (configuration not stated)
3 | 3 µM | 0.1 µM | Cc1ccc(N(CC#N)c2cc(Nc3ccc(OCC(O)CN(C)C)cc3)ncn2)c(Br)c1 (configuration not stated)
4 | 1 µM | 0.05 µM | CN(C)CC(O)COc1ccc(Nc2cc(N(CC#N)c3cc(Cl)ccc3Cl)ncn2)cc1 (configuration not stated)
5 | 25 µM | 2 µM | CN(C)CC(O)COc1ccc(Nc2cc(Nc3ccccc3[N+](=O)[O-])ncn2)cc1 (configuration not stated)
6 | 85 µM | 23 µM | COc1ccccc1Nc1cc(Nc2ccc(OCC(O)CN(C)C)cc2)ncn1 (configuration not stated)
7 | > 100 µM | 5 µM | CN(C)CC(O)COc1ccc(Nc2cc(N(Cc3ccccc3)c3cc(Cl)ccc3Cl)ncn2)cc1 (configuration not stated)

The remaining lines, values behind:

Row | SMILES | IC50 [1] | IC50 [2]
8 | CC(C)c1ccccc1Nc1cc(Nc2ccc(OCC(O)CN(C)C)cc2)ncn1 (configuration not stated) | 24 µM | 18 µM
9 | C#CCN(c1cc(Nc2ccc(OCC(O)CN(C)C)cc2)ncn1)c1cc(Cl)ccc1Cl (configuration not stated) | 19 µM | 0.8 µM
10 | CN(C)CC(O)COc1ccc(Nc2cc(Nc3ccc(F)cc3F)ncn2)cc1 (configuration not stated) | 93 µM | 15 µM
11 | CN(C)CC(O)COc1ccc(Nc2cc(N(CCC#N)c3cc(Cl)ccc3Cl)ncn2)cc1 (configuration not stated) | 5 µM | 0.5 µM
12 | CN(C)CC(O)COc1ccc(Nc2cc(Nc3cc(C(F)(F)F)ccc3F)ncn2)cc1 (configuration not stated) | – | 6 µM
13 | CN(C)CC(O)COc1ccc(Nc2cc(Nc3c(F)cccc3F)ncn2)cc1 (configuration not stated) | – | 9 µM
14 | CN(C)CC(O)COc1ccc(Nc2cc(Nc3cc(Cl)ccc3Cl)ncn2)cc1 (configuration not stated) | 22 µM | 1 µM
15 | CN(C)CC(O)COc1ccc(Nc2cc(Nc3ccccc3Br)ncn2)cc1 (configuration not stated) | 28 µM | 4 µM
16 | CN(C)CC(O)COc1ccc(Nc2cc(Nc3ccccc3)ncn2)cc1 (configuration not stated) | > 100 µM | 33 µM
17 | CN(C)CC(O)COc1ccc(Nc2cc(Nc3ccccc3F)ncn2)cc1 (configuration not stated) | > 100 µM | 27 µM
